Measurements: BindingDB's records for doi:10.7270/Q2W957K6 (Pcmd, 2008)

target: Coagulation factor XI (Homo sapiens, UniProt P03951); experiment: human FXIa inhibitor potency, dose response, biochemical (AID 679)
Sequence (P03951 19-387 limits assumed): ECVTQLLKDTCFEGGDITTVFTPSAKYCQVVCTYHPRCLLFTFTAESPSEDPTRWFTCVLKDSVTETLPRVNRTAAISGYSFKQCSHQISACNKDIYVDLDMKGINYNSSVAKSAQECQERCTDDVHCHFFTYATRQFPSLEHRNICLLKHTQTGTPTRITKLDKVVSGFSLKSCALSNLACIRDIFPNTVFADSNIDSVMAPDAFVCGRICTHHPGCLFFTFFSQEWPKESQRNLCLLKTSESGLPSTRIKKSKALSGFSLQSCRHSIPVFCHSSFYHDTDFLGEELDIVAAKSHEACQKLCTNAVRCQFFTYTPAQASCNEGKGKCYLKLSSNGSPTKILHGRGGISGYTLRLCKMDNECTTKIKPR
Sequence (P03951 388-625 limits assumed): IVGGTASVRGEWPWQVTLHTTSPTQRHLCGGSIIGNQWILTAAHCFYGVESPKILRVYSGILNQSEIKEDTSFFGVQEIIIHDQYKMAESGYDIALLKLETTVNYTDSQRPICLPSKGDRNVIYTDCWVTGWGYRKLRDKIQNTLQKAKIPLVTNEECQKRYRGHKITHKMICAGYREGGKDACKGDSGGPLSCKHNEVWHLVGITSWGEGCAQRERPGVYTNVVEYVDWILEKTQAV

Structure (SMILES) | IC50 [nM]
COC(=O)CSc1nnc(C)n1-c1cccc(OC)c1 [[4-(3-Methoxy-phenyl)-5-methyl-4H-[1,2,4]triazol-3-ylsulfanyl]-acetic acid methyl ester] | 2360
CCOC(=O)c1cc2c(ccn2C)n1CC(=O)N1CCC(C)CC1 [ethyl 1-methyl-4-[2-(4-methylpiperidin-1-yl)-2-oxoethyl]pyrrolo[3,2-b]pyrrole-5-carboxylate] | 744
CCOC(=O)c1c(C)nc2c(c1C)c(=O)oc1ccccc12 [ethyl 2,4-dimethyl-5-oxochromeno[4,3-b]pyridine-3-carboxylate] | > 50000
COC(=O)c1ccc(NC(=O)Cc2c(O)n(-c3ccc(C)cc3)c(=O)n2CC(C)C)cc1 [methyl 4-[2-[1-(4-methylphenyl)-3-(2-methylpropyl)-2,5-bis(oxidanylidene)imidazolidin-4-yl]ethanoylamino]benzoate] | > 50000
COC(=O)c1[nH]c2ccc(Br)cc2c1NC(=O)CN1CCCc2ccccc21 [methyl 5-bromanyl-3-[2-(3,4-dihydro-2H-quinolin-1-yl)ethanoylamino]-1H-indole-2-carboxylate] | > 50000
